Data set [1] in a line: Cytotoxicity in mock-infected Vero-E6 cells (CellTiter-Glo). The conditions noted are these: African green monkey.
In data set [2] the test system is hCoV-19/Norway/Trondheim-E9/2020. Description: Drug test: viability of SARS-CoV-2-infected Vero-E6 cells (CellTiter-Glo). The arrangement: AUC: unit not given beside the values. Type of data set: cell-based.
In data set [3] the test system is viral genomic and sub-genomic RNAs. Description: Gene expression analysis (RNA sequencing) of drug-treated infected Vero-E6 cells. The conditions noted are these: moi 0.1, 24 h, 3 M nelfinavir, 5 M amodiaquine or both. Type of data set: cell-based, SARS-CoV-2.
Data set [4] in a line: Drug combination test, mock-infected Vero-E6 cells (CTG). The class given is cell-based. To be noted: African green monkey, mock-infected Vero-E6 cells (control), read-out: Relative viability (%); for viability at 72 h, 0.008 uM: single drug 0.008 uM (other drug 0); for viability at 72 h, 0.04 uM: single drug 0.04 uM (other drug 0); for viability at 72 h, 0.2 uM: single drug 0.2 uM (other drug 0); for viability at 72 h, 1 uM: single drug 1.0 uM (other drug 0); for viability at 72 h, 5 uM: single drug 5.0 uM (other drug 0).

Setting [5] is: Severe acute respiratory syndrome coronavirus 2, Vero C1008, infected Vero-E6 cells, moi 0.1, 72 h, Mean ± SD, n = 3.
The mark [6] stands for this setting: Severe acute respiratory syndrome coronavirus 2, Vero C1008, 72 h.
Where [7] appears, read: area under the dose-response curve of viability of virus-infected Vero-E6 cells, moi 0.1, 72 h, 7 concentrations, decimal comma.

Molecule `COC1=CC(c2cc3ccccc3[nH]2)=N/C1=C\c1[nH]c(C)cc1C` [Obatoclax (Mesylate), Obatoclax] returned a CC50 at 72 h in data set [1] (mock-infected Vero-E6 cells) of 2200 ± 1000 nM. Also, the EC50 in data set [2] (setting [5]) came out at 300 ± 100 nM.
In data set [1], `CC[C@H]1CN2CCc3cc(OC)c(OC)cc3[C@@H]2C[C@@H]1C[C@H]1NCCc2cc(OC)c(OC)cc21` [Emetine] yielded a CC50 at 72 h of 700 ± 400 nM. The EC50 in data set [2] (setting [6]) was < 10 nM.
On to `COC(=O)C[C@](O)(CCCC(C)(C)O)C(=O)O[C@@H]1C(OC)=C[C@]23CCCN2CCc2cc4c(cc2[C@H]13)OCO4` [Homoharringtonine], for which, in data set [1] (mock-infected Vero-E6 cells), the 50% cytotoxic concentration (CC50) at 72 h was 360 ± 600 nM. This molecule also returned a half-maximal effective concentration (EC50) in data set [2] (setting [5]) of 30 ± 20 nM.
`CCN(CC)Cc1cc(Nc2ccnc3cc(Cl)ccc23)ccc1O` [Amodiaquine]: the “transcription of viral genomic and sub-genomic RNAs” value in data set [3] was “lowered the transcription of viral genomic and sub-genomic RNAs”. The CC50 at 72 h in data set [1] (mock-infected Vero-E6 cells) was > 30000 nM. In data set [4], the viability at 72 h, 0.008 uM stood at 89.1%; the viability at 72 h, 0.04 uM came out at 91.8%; the viability at 72 h, 0.2 uM was found to be 76.4%; the viability at 72 h, 1 uM was determined as 76.6%. For the same molecule, in data set [4], the viability at 72 h, 5 uM was 71.5%. The molecule further registered a 50% effective concentration (EC50) in data set [2] (setting [5]) of 4200 ± 200 nM.
`Cc1c(O)cccc1C(=O)N[C@@H](CSc1ccccc1)[C@H](O)CN1C[C@H]2CCCC[C@H]2C[C@H]1C(=O)NC(C)(C)C` [Nelfinavir] gave a cytotoxic concentration (CC50) at 72 h in data set [1] (mock-infected Vero-E6 cells) of 9700 ± 400 nM. For the same molecule, in data set [4], the viability at 72 h, 0.008 uM came out at 100%; the viability at 72 h, 0.04 uM was 100%; the viability at 72 h, 0.2 uM was found to be 96.5%; the viability at 72 h, 1 uM was 90.2%. The viability at 72 h, 5 uM in data set [4] stood at 80.7%. In data set [2] (setting [5]), a half-maximal effect (EC50) was put at 2100 ± 600 nM.
As to `CC[C@@H](C(=O)[C@@H](C)[C@@H](O)[C@H](C)[C@@H]1O[C@@H]([C@@H](CC)C(=O)O)CC[C@@H]1C)[C@H]1O[C@]2(C=C[C@@H](O)[C@]3(CC[C@@](C)([C@H]4CC[C@](O)(CC)[C@H](C)O4)O3)O2)[C@H](C)C[C@@H]1C` [Salinomycin], in data set [1], it took 13900 ± 300 nM to reach half-maximal cytotoxicity (CC50 at 72 h). Moreover, in data set [2] (setting [6]), a half-maximal effect (EC50) was put at 200 ± 100 nM.
Regarding `Oc1c(Cl)cc(Cl)c(Cl)c1Cc1c(O)c(Cl)cc(Cl)c1Cl` [Hexachlorophene], the AUC in data set [2] (72 h) is on record as 122,15.
Same read-out and setting: under Chicoric acid stands 93,1.
Regarding `CCCCCCCCCCCCCCCCOCCCOP(=O)(O)CO[C@H](CO)Cn1ccc(N)nc1=O` [Brincidofovir (CMX001), Brincidofovir], the AUC in data set [2] (setting [7]) is 126,49.
The same measure, in the same setting: for `O=C(O)P(=O)(O)O` [Foscarnet] the value was 127,26.
As for `CC1(C)[C@@H](O[C@H]2O[C@H](C(=O)O)[C@@H](O)[C@H](O)[C@H]2O[C@@H]2O[C@H](C(=O)O)[C@@H](O)[C@H](O)[C@H]2O)CC[C@]2(C)[C@H]3C(=O)C=C4[C@@H]5C[C@@](C)(C(=O)O)CC[C@]5(C)CC[C@@]4(C)[C@]3(C)CC[C@@H]12` [Glycyrrhizic acid (Glycyrrhizin), Glycyrrhizic acid], in data set [2] (72 h), the AUC is 235,76.
Consider `COC(=O)C1=C(C)NC(C)=C(C(=O)OCCN2CCN(C(c3ccccc3)c3ccccc3)CC2)C1c1cccc([N+](=O)[O-])c1` (stereo not shown) [Manidipine], for which, in data set [2] (setting [7]), the AUC amounted to 133.
Regarding `CN[C@@H]1C[C@H]2O[C@@](C)([C@@H]1OC)n1c3ccccc3c3c4c(c5c6ccccc6n2c5c31)C(=O)NC4` [Staurosporine], the AUC in data set [2] (72 h) was 15,75.
Regarding `COc1ccc2c(c1)c(CC(=O)O)c(C)n2C(=O)c1ccc(Cl)cc1` [Indomethacin], the AUC in data set [2] (setting [7]) is reported as 104,51.
Same read-out and setting: under `CC12CC3CC(C)(C1)CC(N)(C3)C2` [Memantine] stands 115,78.
Take `C[C@H]1O[C@H](O[C@H]2[C@H](O)[C@@H](O)[C@@H](O)[C@H](O)[C@@H]2O)[C@@H](N)C[C@@H]1NC(=N)C(=O)O` [Kasugamycin]: the AUC in data set [2] (72 h) is given as 88,55.
Turning to `CC(C)C(=O)OCC(=O)[C@@]12O[C@H](C3CCCCC3)O[C@@H]1C[C@H]1[C@@H]3CCC4=CC(=O)C=C[C@]4(C)[C@H]3[C@@H](O)C[C@@]12C` [Ciclesonide], in data set [2] (setting [7]), the AUC was 157,15.

Source of the values: PMC7354438 (Viruses, 2020).
